# Test results reported in patent US20250032430A1, “USES OF RHODOQUINONE FOR THE TREATMENT OF DISEASE” (Whitehead Institute for Biomedical Research, priority 2021, published 2025).
# Key:
# complex 1 and DHODH = experiment: Proliferation of WT and RquA cells in media without pyruvate or uridine; format: cell-based; settings: media − pyruvate, − uridine
# Description: Proliferation of WT and RquA cells in media that forces cells to use maximal complex 1 activity (− pyruvate) and maximal DHODH activity (− uridine). Complex 1 and DHODH are enzymes in the ETC that require an electron carrier (classically UQ) to catalyze their function. […] Rotenone was used as a control and inhibits complex 1 activity. Brequinar was used as a control and inhibits DHODH activity.
# 143B cells [1] = experiment: Polar metabolite profiling (succinate level); format: cell-based, human; settings: 500 nM antimycin 8 hours
# Protocol: Isolation of metabolites from adherent cells: To isolate metabolites, media was removed, cells were washed 2 times with ice cold 1×PBS, and wells were covered in LC-MS grade 80:20 Methanol:Water (ThermoFisher). Plates were scraped on dry ice and lysates were collected into eppendorf tubes. Lysates were vortexed for 10 minutes at 4° C. and centrifuged at 16,000×g for 10 minutes at 4° C. Supernatants were immediately dried down in a Refrigerated CentriVap Benchtop Vacuum Concentrator connected to a CentriVap-105 Cold Trap (Labconco). Dried pellets were stored at −80° C. until they were run on LC-MS.
# Liquid Chromatography and Mass Spectrometry (polar): A QExactive bench top orbitrap mass spectrometer equipped with an Ion Max source and a HESI II probe coupled to a Dionex UltiMate 3000 HPLC system (Thermo Fisher Scientific) was used to perform all LC-MS experiments. The instrument underwent mass calibration using the standard calibration mixture every 7 days. 2 μL of re-suspended polar metabolite samples were injected onto a SeQuant ZIC-pHILIC 5 μm 150×2.1 mm analytical column equipped with a 2.1×20 mm guard column (MilliporeSigma). The column oven was held at 25° C. and the autosampler tray was held at 4° C. Buffer A was comprised of 20 mM ammonium carbonate, 0.1% ammonium hydroxide. Buffer B was comprised of 100% acetonitrile. […]
# complex I = experiment: NAD+/NADH ratio in cells; format: cell-based, human; settings: SDHB-null cells treated with antimycin versus wild-type cells treated with antimycin
# Protocol: Next, fumarate reduction was tested to determine if it sustains complex I activity in cells incapable of using O2 as a terminal electron acceptor. Both the NAD+/NADH ratio, which is an indicator of complex I-mediated NADH reoxidation, and the mitochondrial membrane potential (ΔΨ^Mito) to which complex I contributes via proton pumping. […] Thus, fumarate reduction supports partial complex I activity, specifically NADH reoxidation and ΔΨ^Mito, in cells incapable of reducing O2 in the ETC.
# [2] = system: SW1353, U87, DLD1, HCT116, C2C12, primary dermal fibroblasts, Mink lung epithelial cells; experiment: Fumarate reduction in a panel of other cell lines; format: cell-based; settings: other human cancer cell lines
# Protocol: Stable isotope tracing in cells: Cells were seeded 24 hours prior to the experiment in 6-well dishes at 70% density. For stable isotope tracing of glutamine, glutamine-free DMEM (ThermoFisher) was supplemented with 2 mM ^13C5^15N2-glutamine (Sigma), 1 mM pyruvate, 5% FBS, 1% P/S, 0.1 mg/mL uridine. For stable isotope tracing of aspartate, DMEM containing 5% FBS, and 1% penicillin and streptomycin, and 0.1 mg/mL uridine (Sigma) was supplemented with the designated amount of 13C4-aspartate (Sigma) and the pH adjusted to 7.4. Uridine was left out of the media for stable isotope tracing experiments measuring nucleotide biosynthesis. Unless otherwise stated, for all experiments, cells were treated for 8 hours and metabolites were isolated as described below. Relevant compounds were added at the start of the incubation periods.
# 143B cells [3] = experiment: Cell proliferation; format: cell-based, human; settings: antimycin, media containing high pyruvate and aspartate; versus wild-type cells
# Protocol: Proliferation: 25,000 cells were seeded in 6-well dishes and counted on day 1 and day 5 on a Beckman Coulter Counter. Doubling times were calculated using the following equation: […]
# DHODH = experiment: Ex vivo DHODH activity in mouse tissues (13C4-aspartate into 13C4-orotate); settings: 2 μM antimycin
# Protocol: Because net-reversal of the SDH complex supports DHODH activity in cultured cells when O2 reduction is blocked (FIG. 3), mouse tissues were tested. DHODH activity was measured in tissues that are capable (the liver and kidney) or incapable (the heart and gastrocnemius muscle) of net-reversing the SDH complex when O2 reduction is limited. […] Next, DHODH activity was assessed via ^13C4-aspartate incorporation into ^13C4-orotate, because labelling of the ^13C3-UTP pool was undetectable in most tissues.
# Ex vivo stable isotope tracing on tissues: Tissues were excised from mice and washed in 1×PBS. Tissues were then cut into small pieces and placed in the appropriate stable isotope tracing media. Stable isotope tracing media contained either ^13C5^15N2-glutamine (Sigma) or 13C4-aspartate (Sigma) dissolved in DMEM, 5% FBS, 1% P/S. For ex vivo tracing experiments performed on the brain, the same media was used without FBS. Tissues were incubated for the designated time at 37° C. in a normal or hypoxia tissue culture incubator. […]
# Isolation of metabolites from tissues: Tissues were flash frozen and powderized with a mortar and pestle in a liquid nitrogen bath. […] The top layer was transferred to a new tube, dried down in a speedvac, and subsequently stored at −80° C. until they were analyzed by LC-MS. […] Protein in each sample was quantified using the Pierce BCA Protein Assay Kit (Life Technologies). […]
substance,measurement,setting,value
rhodoquinone,support of complex 1 and DHODH activities (proliferation),complex 1 and DHODH,can carry electrons in the ETC and support complex 1 and DHODH activities
antimycin,succinate level,143B cells [1],increase
same,NAD+/NADH ratio,complex I,lower
same,fumarate reduction,[2],increased
same,proliferation of SDHB-null cells,143B cells [3],less than wild-type cells treated with antimycin
same,levels of 13C4-orotate (DHODH activity),DHODH; ex vivo heart and gastrocnemius muscle,reduced
same,levels of 13C4-orotate (DHODH activity),DHODH; ex vivo liver and kidney,remained unchanged
